Test results reported in US9512142B2, “Tricyclic triazolic compounds” (LABORATORIOS DEL DR. ESTEVE S.A., priority 2013, dated 2016).
Values after ≈ are worked out from the molar mass of the structure shown.

Test: Kinetic solubility
Assay type: physicochemical
Conditions: aqueous buffer, kinetic from dmso stock; buffered aqueous solution at pH=7.4, 10 μL of 10 mM DMSO solution in 1 mL, stirred 4 hours, supernatant by liquid chromatography; read-out: Kin. Solub.
Method: To a buffered aqueous solution at pH=7.4 (1 mL), a 10 mM DMSO solution of the test compound (10 μL) was added and the mixture stirred for 4 hours. After centrifugation, the compound concentration in the supernatant was determined by liquid chromatography by fitting in a calibration curve of the compound.

SMILES	solubility at 4 h
Cl.Fc1ccccc1-c1nnn2c1CO[C@@H]1CN(Cc3ccccn3)C[C@H]12 (racemic) [Example 3, (5aRS,8aRS)-3-(2-fluorophenyl)-7-(pyridin-2-ylmethyl)-4,5a,6,7,8,8a-hexahydropyrrolo[3,4-b][1,2,3]triazolo[1,5-d][1,4]oxazine hydrochloride]	> 10 µM
Cl.Fc1ccccc1-c1nnn2c1CO[C@@H]1CN(Cc3cccnc3)C[C@H]12 [Example 1, (5aR,8aR)-3-(2-fluorophenyl)-7-(pyridin-3-ylmethyl)-4,5a,6,7,8,8a-hexahydropyrrolo[3,4-b][1,2,3]triazolo[1,5-d][1,4]oxazine hydrochloride]	> 20 µM
Cl.Fc1ccccc1-c1nnn2c1CO[C@@H]1CN(C3CCOCC3)C[C@H]12 [Example 7, (5aR,8aR)-3-(2-fluorophenyl)-7-(tetrahydro-2H-pyran-4-yl)-4,5a,6,7,8,8a-hexahydropyrrolo[3,4-b][1,2,3]triazolo[1,5-d][1,4]oxazine hydrochloride]	> 10 µM
Cl.Fc1ccc(CN2C[C@@H]3OCc4c(-c5ccccn5)nnn4[C@H]3C2)cc1 [Example 25, (5aS,8aS)-7-(4-fluorobenzyl)-3-(pyridin-2-yl)-4,5a,6,7,8,8a-hexahydropyrrolo[3,4-b][1,2,3]triazolo[1,5-d][1,4]oxazine hydrochloride]	> 10 µM
Cl.Clc1ccc(-c2nnn3c2CO[C@@H]2CN(CC4CCOCC4)C[C@H]23)c(Cl)c1 [Example 44, (5aR,8aR)-3-(2,4-dichlorophenyl)-7-((tetrahydro-2H-pyran-4-yl)methyl)-4,5a,6,7,8,8a-hexahydropyrrolo[3,4-b][1,2,3]triazolo[1,5-d][1,4]oxazine hydrochloride]	> 10 µM
Cl.Fc1ccc(CN2C[C@@H]3[C@@H](C2)OCc2c(C4CCOCC4)nnn23)cc1 [Example 64, (5aR,8aR)-7-(4-fluorobenzyl)-3-(tetrahydro-2H-pyran-4-yl)-4,5a,6,7,8,8a-hexahydropyrrolo[3,4-b][1,2,3]triazolo[1,5-d][1,4]oxazine hydrochloride]	> 10 µM

Same assay, conditions: buffered aqueous solution at pH=7.4, 10 μL of 10 mM DMSO solution in 1 mL, stirred 4 hours, supernatant by liquid chromatography; read-out: Kin. Solub.

solubility at 4 h	SMILES
3.9 µM (≈ 1.44 µg/mL)	Fc1ccc(CN2C[C@@H]3[C@@H](C2)OCc2c(-c4cccc(F)c4)nnn23)cc1 [drawing 121, reference compound]

Same assay, conditions: buffered aqueous solution, pH 7.4, aqueous buffer, kinetic from dmso stock, buffered aqueous solution at pH=7.4, 10 μL of 10 mM DMSO solution in 1 mL, stirred 4 hours, supernatant by liquid chromatography; read-out: Kin. Solub.

SMILES	solubility at 4 h
Cl.Fc1ccc(-c2nnn3c2CO[C@@H]2CN(C4CCOCC4)C[C@H]23)cc1 [Example 5, (5aR,8aR)-3-(4-fluorophenyl)-7-(tetrahydro-2H-pyran-4-yl)-4,5a,6,7,8,8a-hexahydropyrrolo[3,4-b][1,2,3]triazolo[1,5-d][1,4]oxazine hydrochloride]	> 10 µM
Cl.Fc1ccccc1-c1nnn2c1CO[C@H]1CN(C3CCOCC3)C[C@@H]12 [Example 6, (5aS,8aS)-3-(2-fluorophenyl)-7-(tetrahydro-2H-pyran-4-yl)-4,5a,6,7,8,8a-hexahydropyrrolo[3,4-b][1,2,3]triazolo[1,5-d][1,4]oxazine hydrochloride]	> 10 µM
CCOc1ccc(CN2C[C@@H]3OCc4c(-c5ccccc5F)nnn4[C@H]3C2)cn1.Cl [Example 20, (5aS,8aS)-7-((6-ethoxypyridin-3-yl)methyl)-3-(2-fluorophenyl)-4,5a,6,7,8,8a-hexahydropyrrolo[3,4-b][1,2,3]triazolo[1,5-d][1,4]oxazine hydrochloride]	> 10 µM
Cl.Fc1ccc(CN2C[C@@H]3[C@@H](C2)OCc2c(-c4ccccn4)nnn23)cc1 [Example 24, (5aR,8aR)-7-(4-fluorobenzyl)-3-(pyridin-2-yl)-4,5a,6,7,8,8a-hexahydropyrrolo[3,4-b][1,2,3]triazolo[1,5-d][1,4]oxazine hydrochloride]	> 10 µM
Cl.Clc1ccc(-c2nnn3c2CO[C@H]2CN(CC4CCOCC4)C[C@@H]23)c(Cl)c1 [Example 45, (5aS,8aS)-3-(2,4-dichlorophenyl)-7-((tetrahydro-2H-pyran-4-yl)methyl)-4,5a,6,7,8,8a-hexahydropyrrolo[3,4-b][1,2,3]triazolo[1,5-d][1,4]oxazine hydrochloride]	> 10 µM
Cl.Fc1ccc(CN2C[C@@H]3OCc4c(C5CCOCC5)nnn4[C@H]3C2)cc1 [Example 65, (5aS,8aS)-7-(4-fluorobenzyl)-3-(tetrahydro-2H-pyran-4-yl)-4,5a,6,7,8,8a-hexahydropyrrolo[3,4-b][1,2,3]triazolo[1,5-d][1,4]oxazine hydrochloride]	> 10 µM

Now from value to compound:

solubility at 4 h	SMILES
> 10 µM	Cl.Fc1ccc(-c2nnn3c2CO[C@@H]2CN(C4CCOCC4)C[C@H]23)c(F)c1 [Example 28, (5aR,8aR)-3-(2,4-difluorophenyl)-7-(tetrahydro-2H-pyran-4-yl)-4,5a,6,7,8,8a-hexahydropyrrolo[3,4-b][1,2,3]triazolo[1,5-d][1,4]oxazine hydrochloride]
> 10 µM	Cl.Fc1ccc(-c2nnn3c2CO[C@@H]2CN(CCC4CCOCC4)C[C@H]23)c(F)c1 [Example 40, (5aR,8aR)-3-(2,4-difluorophenyl)-7-(2-(tetrahydro-2H-pyran-4-yl)ethyl)-4,5a,6,7,8,8a-hexahydropyrrolo[3,4-b][1,2,3]triazolo[1,5-d][1,4]oxazine hydrochloride]
> 10 µM	Cl.Fc1ccc(-c2nnn3c2CO[C@H]2CN(CCC4CCOCC4)C[C@@H]23)c(F)c1 [Example 41, (5aS,8aS)-3-(2,4-difluorophenyl)-7-(2-(tetrahydro-2H-pyran-4-yl)ethyl)-4,5a,6,7,8,8a-hexahydropyrrolo[3,4-b][1,2,3]triazolo[1,5-d][1,4]oxazine hydrochloride]
3.4 µM (≈ 1.25 µg/mL)	Fc1ccc(CN2C[C@@H]3[C@@H](C2)OCc2c(-c4cccc(F)c4)nnn23)cc1 [drawing 113, reference compound]
1.82 µM (≈ 0.638 µg/mL)	Fc1ccc(-c2nnn3c2CO[C@@H]2CN(Cc4ccccc4)C[C@H]23)cc1 [reference compound]
2.13 µM (≈ 0.823 µg/mL)	Fc1ccc(CN2C[C@@H]3[C@@H](C2)OCc2c(-c4ccc(F)cc4F)nnn23)cc1 [reference compound]
0.93 µM (≈ 0.341 µg/mL)	Clc1ccc(-c2nnn3c2COC2CN(Cc4ccccc4)C[C@H]23)cc1 (stereo partly shown) [reference compound]
7.8 µM (≈ 3.13 µg/mL)	Clc1ccc(-c2nnn3c2CO[C@@H]2CN(Cc4ccccc4)C[C@H]23)c(Cl)c1 [reference compound]
< 0.4 µM	FC(F)(F)c1ccc(-c2nnn3c2COC2CN(Cc4ccccc4)C[C@H]23)cc1 (stereo partly shown) [reference compound]
2.1 µM (≈ 0.761 µg/mL)	COc1ccc(-c2nnn3c2CO[C@H]2CN(Cc4ccccc4)C[C@@H]23)cc1 [reference compound]
3.08 µM (≈ 1.13 µg/mL)	Fc1ccc(CN2C[C@@H]3OCc4c(-c5ccccc5F)nnn4[C@H]3C2)cc1 [reference compound]
< 1 µM	Clc1cc(Cl)nc(N2CC3OCc4c(-c5ccccc5)nnn4[C@@H]3C2)n1 (stereo partly shown) [reference compound]
